In US20190142046A1, “FUNCTIONALLY REINFORCED DESALTED NUTRITIONAL COMPOSITIONS FROM HALOPHYTES AND PREPARATION METHOD THEREOF” (PHYTO CORPORATION, priority 2016, published 2019):
Where a name gives a salt, the structure may show the parent alone.

Legend:
Type in all cases: cell-based
SREBP-1 = assay: Real-Time RT-PCR, SREBP-1 gene expression in 3T3-L1; settings: 1, 2, 5 and 10 μM; largest decrease at 10 μM
Procedure: (§1) Real-Time RT-PCR was performed to investigate the effect of trans-ferulic acid (TFA) on transcription factors involved in lipid metabolism at mRNA expression levels. Total RNA was isolated from a control group and each test group treated with various concentrations of TFA (easy-Blue, iNtRon, INC, Daejeon, Korea) and diluted at the same concentration, and cDNA synthesis was carried out using the diluted RNA samples (cDNA reverse transcription kits, Applied Biosystems, CA, USA).
(§2) In brief, after 3T3-L1 preadipocytes were treated with TFA at various concentrations, namely 1, 2, 5 and 10 μM), Real-time qRT-PCR was performed using the primers of Table 9 (CFX96 real-time PCR detection system, Bio-Rad Laboratories, Hercules, Calif., USA). The PCR conditions included denaturation at […] for 3 min, 45 cycles of 95° C. for 5 sec and 60° C. for 20 sec, and heating up to 95° C. (by increasing the temperature at a rate of 0.2° C./15 sec) to terminate the reaction. […] Therefore, the Desalted Salicornia Powder (DSP) containing TFA as an effective component may effectively reduce body fat by inhibiting adipocyte differentiation and lipid droplet formation and may eventually lead to a decrease in body weight, and thus has the potential to be applied as a functional food and feedstuff for preventing and/or treating obesity.

3T3-L1 cells [1] = assay: Oil Red O staining of lipid droplets during adipocyte differentiation
Procedure: The major marker component of the desalted Salicornia powder, trans-ferulic acid (TFA), was evaluated for its inhibitory effect on adipocyte differentiation using 3T3-L1 cells as an in-vitro model of adipocyte differentiation. 3T3-L1 preadipocytes were checked for contamination every eight hours to improve confidence in the experiment. Primary preadipocytes were propagated, and were then induced to differentiate with a culture medium containing 3-isobutyl-1-methylxanthine (IBMX), dexamethasone and insulin. During the differentiation induction, the medium was changed twice every three days. After being induced to differentiate, 3T3-L1 cells were subjected to Oil Red O staining to detect the presence of intracellular lipid droplets. First, the medium was discarded from each well, and cells were fixed with 4% paraformaldehyde. Subsequently, cells were washed with 100% 1,2-propanediol dehydration solution for 5 min and then stained with Oil Red O stain solution. After Oil Red O staining, 85% 1,2-propanediol stain differential solution was added to each well for cell washing. Finally, distilled water was added to each well to prevent stained cells from drying, and cells were observed under a microscope to determine lipid accumulation.

C/EBPα = assay: Real-Time RT-PCR, C/EBPα gene expression in 3T3-L1; settings: 5 μM and 10 μM
Procedure: as §1, §2

PPARγ = assay: Real-Time RT-PCR, PPARγ gene expression in 3T3-L1; settings: 10 μM
Procedure: as §1, §2

3T3-L1 cells [2] = assay: Intracellular triglyceride formation during adipocyte differentiation
Procedure: The major marker component of the desalted Salicornia powder, trans-ferulic acid (TFA), was evaluated for its inhibitory effect on adipocyte differentiation using 3T3-L1 cells as an in-vitro model of adipocyte differentiation. 3T3-L1 preadipocytes were checked for contamination every eight hours to improve confidence in the experiment. Primary preadipocytes were propagated, and were then induced to differentiate with a culture medium containing 3-isobutyl-1-methylxanthine (IBMX), dexamethasone and insulin. During the differentiation induction, the medium was changed twice every three days. In addition, as a marker for adipocyte differentiation, intracellular triglyceride formation was investigated.

FAS = assay: Real-Time RT-PCR, FAS gene expression in 3T3-L1; settings: 1, 2, 5 and 10 μM; largest decrease at 10 μM
Procedure: as §1, §2

Compound: COc1cc(/C=C/C(=O)O)ccc1O [TFA, trans-ferulic acid]
- SREBP-1 gene expression compared to differentiation-induced control (MDI) (SREBP-1): reduced in a dosage-dependent manner
- inhibition of lipid droplet formation compared to differentiation-induced control (MDI) (3T3-L1 cells [1]; 5 μM and 10 μM): remarkably significant inhibition
- adipocyte differentiation and lipid droplet formation (Oil Red O) (3T3-L1 cells [1]; within the used concentrations): inhibit adipocyte differentiation and lipid droplet formation in a dosage-dependent manner
- C/EBPα gene expression compared to differentiation-induced control (MDI) (C/EBPα): significantly reduced in a dosage-dependent manner
- PPARγ gene expression (PPARγ): significantly reduced
- triglyceride formation compared to differentiation-induced control (MDI) (3T3-L1 cells [2]; 5 μM and 10 μM): remarkably significantly inhibited
- intracellular triglyceride formation (3T3-L1 cells [2]; 1, 2, 5 and 10 μM): reduced intracellular triglyceride formation in a dosage-dependent manner
- FAS gene expression compared to differentiation-induced control (MDI) (FAS): reduced in a dosage-dependent manner
